US8546377B2 (AbbVie Inc., priority 2009, dated 2013)
pEC50: −log10 of the molar value. Like-named read-outs stand apart in the source and are kept apart here.

Key:
5HT2B receptors = molecular target: T1, 5HT2B receptors (Homo sapiens, UniProt P41595); experiment: Human 5-HT2B functional assay in CHO-K1 cells (calcium flux, FLIPR); assay type: cell-based; settings: for EC50: CHO-K1 cells over-expressing 5HT2B, calcium flux, read-out: EC50 (μM), 5-HT2B Agonist Activity
T1 construct: expressed in transfected cells; host or cells: CHO-K1 cells
How it was run: (§1)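 EC50 came from a 4-parameter logistic fit, with Emax expressed relative to serotonin, of intracellular Ca2+ rises read on FLIPR at 480/530 nm, 25° C, over 3 min. Compounds ran from 10 μM in six 1:10 steps (0.2% DMSO) on serum-starved CHO-K1 transfectants pre-loaded 60 min with Ca4 dye and probenecid.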

5HT2C receptors = molecular target: T2, 5HT2C receptors (Homo sapiens, UniProt P28335); experiment: Human 5-HT2C functional assay in CHO-K1 cells (calcium flux, FLIPR); assay type: cell-based; set-up: expressed in transfected cells; host or cells: CHO-K1 cells; settings: for EC50: CHO-K1 cells over-expressing 5HT2C, calcium flux, read-out: EC50 (μM), 5-HT2c Agonist Activity; for Emax: percentage relative to the effect of serotonin
T2 sequence (P28335 33-458): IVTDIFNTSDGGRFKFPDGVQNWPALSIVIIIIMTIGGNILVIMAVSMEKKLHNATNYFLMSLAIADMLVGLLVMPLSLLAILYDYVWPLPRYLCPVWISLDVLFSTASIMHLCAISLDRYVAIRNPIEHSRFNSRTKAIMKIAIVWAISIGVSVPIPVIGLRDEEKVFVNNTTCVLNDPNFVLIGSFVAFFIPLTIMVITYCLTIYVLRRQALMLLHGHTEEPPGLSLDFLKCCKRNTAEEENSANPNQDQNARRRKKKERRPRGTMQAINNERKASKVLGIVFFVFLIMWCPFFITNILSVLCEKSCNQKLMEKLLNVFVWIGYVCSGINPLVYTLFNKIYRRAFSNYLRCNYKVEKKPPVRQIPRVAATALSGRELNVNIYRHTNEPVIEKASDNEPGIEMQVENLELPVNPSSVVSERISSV
How it was run: as §1

[1] = CHO-K1 cells, read-out: Emax (%), 5-HT2c Agonist Activity
[2] = CHO-K1 cells, percentage relative to the effect of serotonin, read-out: Emax (%), 5-HT2B Agonist Activity
[3] = CHO-K1, read-out: Emax (%), 5-HT2c Agonist Activity, CHO-K1 cells

T1 sequence (P41595 whole entry): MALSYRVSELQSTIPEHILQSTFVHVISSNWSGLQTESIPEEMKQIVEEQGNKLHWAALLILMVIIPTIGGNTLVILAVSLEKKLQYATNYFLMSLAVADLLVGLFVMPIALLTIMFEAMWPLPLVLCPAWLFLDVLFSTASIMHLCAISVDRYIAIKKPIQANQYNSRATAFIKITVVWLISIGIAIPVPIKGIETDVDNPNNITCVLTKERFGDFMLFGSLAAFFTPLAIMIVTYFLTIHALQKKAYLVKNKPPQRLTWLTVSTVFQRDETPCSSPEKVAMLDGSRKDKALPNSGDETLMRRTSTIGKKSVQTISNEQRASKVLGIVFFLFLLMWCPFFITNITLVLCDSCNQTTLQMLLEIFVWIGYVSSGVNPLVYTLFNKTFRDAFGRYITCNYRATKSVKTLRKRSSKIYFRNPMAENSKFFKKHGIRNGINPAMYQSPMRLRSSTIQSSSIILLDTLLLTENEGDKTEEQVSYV

EC50 (5HT2B receptors)	EC50 (5HT2C receptors)	Emax (5HT2C receptors; [1])	Emax (5HT2B receptors; [2])	Compound	pEC50 (5HT2B receptors)	pEC50 (5HT2C receptors)	Emax (5HT2C receptors; [3])	Emax (5HT2B receptors; CHO-K1, read-out: Emax (%), 5-HT2B Agonist Activity)
> 10 µM	0.007 µM	> 120%	–	O=C1C[C@H]2CNCCN2c2cc(OCCc3cccc(F)c3)ccc2N1 [Example 164, (4aS)-10-[2-(3-fluorophenyl)ethoxy]-1,2,3,4,4a,5-hexahydropyrazino[1,2-a][1,5]benzodiazepin-6(7H)-one]	–	–	–	–
> 10 µM	0.008 µM	> 120%	–	C[C@H](Cc1ccccc1)Oc1ccc2c(c1)N1CCNC[C@@H]1CC(=O)N2 [Example 165, (4aS)-10-{[(2R)-1-phenylpropan-2-yl]oxy}-1,2,3,4,4a,5-hexahydropyrazino[1,2-a][1,5]benzodiazepin-6(7H)-one]	–	–	–	–
> 10 µM	0.04 µM	> 120%	–	C[C@H](Cc1ccccc1)Oc1ccc2c(c1)N1CCNC[C@H]1CC(=O)N2 [Example 166, (4aR)-10-{[(2R)-1-phenylpropan-2-yl]oxy}-1,2,3,4,4a,5-hexahydropyrazino[1,2-a][1,5]benzodiazepin-6(7H)-one]	–	–	–	–
> 10 µM	1 µM	110%	–	C[C@@H](Cc1ccccc1)Oc1ccc2c(c1)N1CCNC[C@H]1CC(=O)N2 [Example 167, (4aR)-10-{[(2S)-1-phenylpropan-2-yl]oxy}-1,2,3,4,4a,5-hexahydropyrazino[1,2-a][1,5]benzodiazepin-6(7H)-one]	–	–	–	–
> 10 µM	0.9 µM	50%	–	c1ccc(CN2CCN3c4ccccc4OCC[C@H]3C2)cc1 [Example 168, (4aS)-3-benzyl-2,3,4,4a,5,6-hexahydro-1H-pyrazino[2,1-d][1,5]-benzoxazepine]	–	–	–	–
> 10 µM	0.02 µM	> 120%	–	O=C1C[C@H]2CNCCN2c2cc(OCC3CC3)ccc2N1 [Example 170, (4aS)-10-(cyclopropylmethoxy)-1,2,3,4,4a,5-hexahydropyrazino[1,2-a][1,5]benzodiazepin-6(7H)-one]	–	–	–	–
> 10 µM	0.9 µM	100%	–	O=C1C[C@H]2CNCCN2c2cc(OCCc3ccccn3)ccc2N1 [Example 171, (4aS)-10-[2-(pyridin-2-yl)ethoxy]-1,2,3,4,4a,5-hexahydropyrazino[1,2-a][1,5]benzodiazepin-6(7H)-one]	–	–	–	–
> 10 µM	0.002 µM	> 120%	–	O=C1C[C@H]2CNCCN2c2cc(OCCc3ccccc3Cl)ccc2N1 [Example 172, (4aS)-10-[2-(2-chlorophenyl)ethoxy]-1,2,3,4,4a,5-hexahydropyrazino[1,2-a][1,5]benzodiazepin-6(7H)-one]	–	–	–	–
> 10 µM	0.004 µM	110%	–	O=C1C[C@H]2CNCCN2c2cc(OCCc3cccc(C(F)(F)F)c3)ccc2N1 [Example 173, (4aS)-10-{2-[3-(trifluoromethyl)phenyl]ethoxy}-1,2,3,4,4a,5-hexahydropyrazino[1,2-a][1,5]benzodiazepin-6(7H)-one]	–	–	–	–
0.5 µM	0.001 µM	> 120%	20%	O=C1C[C@H]2CNCCN2c2cc(OCCc3cccc(Cl)c3)ccc2N1 [Example 175, (4aS)-10-[2-(3-chlorophenyl)ethoxy]-1,2,3,4,4a,5-hexahydropyrazino[1,2-a][1,5]benzodiazepin-6(7H)-one]	–	–	–	–
1 µM	0.002 µM	100%	10%	Cc1cccc(CCOc2ccc3c(c2)N2CCNC[C@@H]2CC(=O)N3)c1 [Example 176, (4aS)-10-[2-(3-methylphenyl)ethoxy]-1,2,3,4,4a,5-hexahydropyrazino[1,2-a][1,5]benzodiazepin-6(7H)-one]	–	–	–	–
> 10 µM	0.06 µM	110%	–	CCC(Oc1ccc2c(c1)N1CCNC[C@@H]1CC(=O)N2)c1ccccc1 (stereo partly drawn) [Example 177, (4aS)-10-(1-phenylpropoxy)-1,2,3,4,4a,5-hexahydropyrazino[1,2-a][1,5]benzodiazepin-6(7H)-one]	–	–	–	–
0.04 µM	0.001 µM	100%	45%	C[C@@H](Oc1ccc2c(c1)N1CCNC[C@@H]1CC(=O)N2)c1cc(F)ccc1F [Example 178, (4aS)-10-[(1R)-1-(2,5-difluorophenyl)ethoxy]-1,2,3,4,4a,5-hexahydropyrazino[1,2-a][1,5]benzodiazepin-6(7H)-one]	–	–	–	–
–	–	–	–	Clc1ccc2c(c1)OCC[C@H]1CNCCN21 [Example 179, (4aS)-9-chloro-2,3,4,4a,5,6-hexahydro-1H-pyrazino[2,1-d][1,5]benzoxazepine]	< 5.00	8.10	> 120%	–
–	–	–	–	c1ccc2c(c1)CCCC1CNCCN21 (stereo not drawn) [Example 182, 1,2,3,4,4a,5,6,7-octahydropyrazino[1,2-a][1]benzazepine]	7.00	8.15	> 120%	40%
–	–	–	–	CN1CCN2c3ccccc3CCCC2C1 (stereo not drawn) [Example 183, 3-methyl-1,2,3,4,4a,5,6,7-octahydropyrazino[1,2-a][1]benzazepine]	< 5.00	8.52	> 120%	–
> 10 µM	0.03 µM	> 120%	–	O=C1CC2CNCCN2c2cc(Cc3ccccc3)ccc2N1 (stereo not drawn) [Example 185, 10-benzyl-1,2,3,4,4a,5-hexahydropyrazino[1,2-a][1,5]benzodiazepin-6(7H)-one]	–	–	–	–
> 10 µM	0.8 µM	> 120%	–	Clc1ccc2c(c1)N1CCN(Cc3ccccc3)C[C@@H]1CCO2 [Example 186, (4aS)-3-benzyl-10-chloro-2,3,4,4a,5,6-hexahydro-1H-pyrazino[2,1-d][1,5]-benzoxazepine]	–	–	–	–
6 µM	0.03 µM	> 120%	10%	c1ccc(-c2ccc3c(c2)N2CCNC[C@@H]2CCO3)cc1 [Example 187, (4aS)-10-phenyl-2,3,4,4a,5,6-hexahydro-1H-pyrazino[2,1-d][1,5]benzoxazepine]	–	–	–	–
–	–	–	–	CN1CCN2c3cc(Cl)ccc3OCC[C@H]2C1 [Example 188, (4aS)-10-chloro-3-methyl-2,3,4,4a,5,6-hexahydro-1H-pyrazino[2,1-d][1,5]benzoxazepine]	< 5.00	8.00	70%	–
1 µM	0.03 µM	> 120%	20%	Cc1ccccc1-c1ccc2c(c1)N1CCNC[C@@H]1CCO2 [Example 189, (4aS)-10-(2-methylphenyl)-2,3,4,4a,5,6-hexahydro-1H-pyrazino[2,1-d][1,5]benzoxazepine]	–	–	–	–
> 10 µM	0.02 µM	> 120%	–	Cc1cccc(-c2ccc3c(c2)N2CCNC[C@@H]2CCO3)c1 [Example 190, (4aS)-10-(3-methylphenyl)-2,3,4,4a,5,6-hexahydro-1H-pyrazino[2,1-d][1,5]benzoxazepine]	–	–	–	–
> 10 µM	0.4 µM	> 120%	–	Cc1ccc(-c2ccc3c(c2)N2CCNC[C@@H]2CCO3)cc1 [Example 191, (4aS)-10-(4-methylphenyl)-2,3,4,4a,5,6-hexahydro-1H-pyrazino[2,1-d][1,5]benzoxazepine]	–	–	–	–
1 µM	0.03 µM	> 120%	10%	COc1ccccc1-c1ccc2c(c1)N1CCNC[C@@H]1CCO2 [Example 192, (4aS)-10-(2-methoxyphenyl)-2,3,4,4a,5,6-hexahydro-1H-pyrazino[2,1-d][1,5]benzoxazepine]	–	–	–	–
1 µM	0.008 µM	> 120%	25%	COc1cccc(-c2ccc3c(c2)N2CCNC[C@@H]2CCO3)c1 [Example 193, (4aS)-10-(3-methoxyphenyl)-2,3,4,4a,5,6-hexahydro-1H-pyrazino[2,1-d][1,5]benzoxazepine]	–	–	–	–
> 10 µM	0.4 µM	> 120%	–	COc1ccc(-c2ccc3c(c2)N2CCNC[C@@H]2CCO3)cc1 [Example 194, (4aS)-10-(4-methoxyphenyl)-2,3,4,4a,5,6-hexahydro-1H-pyrazino[2,1-d][1,5]benzoxazepine]	–	–	–	–
0.3 µM	0.007 µM	> 120%	55%	CS(=O)(=O)c1ccccc1-c1ccc2c(c1)N1CCNC[C@@H]1CCO2 [Example 195, (4aS)-10-[2-(methylsulfonyl)phenyl]-2,3,4,4a,5,6-hexahydro-1H-pyrazino[2,1-d][1,5]benzoxazepine]	–	–	–	–

Compound	EC50 (5HT2B receptors)	EC50 (5HT2C receptors)	Emax (5HT2C receptors; [1])	Emax (5HT2B receptors; [2])	pEC50 (5HT2B receptors)	pEC50 (5HT2C receptors)	Emax (5HT2C receptors; [3])	Emax (5HT2B receptors; CHO-K1, read-out: Emax (%), 5-HT2B Agonist Activity)
CCC(C)Oc1ccc2c(c1)N1CCNC[C@@H]1CC(=O)N2 (stereo partly drawn) [Example 174, (4aS)-10-sec-butoxy-1,2,3,4,4a,5-hexahydropyrazino[1,2-a][1,5]benzodiazepin-6(7H)-one]	> 10 µM	0.007 µM	> 120%	–	–	–	–	–
